Source: US12054742B2, “Compositions and methods to derive mesodermal lineage cells and mixed tissue organoids from embryonic stem cells” (THE REGENTS OF THE UNIVERSITY OF MICHIGAN, priority 2018, dated 2024)

Legend:
Assay type in all cases: cell-based, mouse
[1] = system: hWDR5Dox;mWdr5KO (mWdr5 KO) organoids; test: Rx-GFP (+) retinal lineage cell differentiation scored by flow cytometry (day 5); details: Dox from T0h
Method: (§1) FIGS. 2A-2H. WDR5 regulates retinal progenitor cell fate transition in a dose- and time-dependent manner. (FIG. 2A) Tight control of exogenous HA-hWDR5 during early time window of ESC differentiation. hWDR5^Dox;mWdr5^KO (i.e., mWdr5 KO) ESCs were maintained in Dox (+) ESC media and Dox was removed upon ESC differentiation (day 0 or EB day 0 (EB0)). At different time points (0 h, 24 h, 36 h, 48 h, 60 h), cells were collected and subjected to probe HA-hWDR5 expression (a-HA). Tubulin: loading control. (FIG. 2B) Dose-dependent induction of exogenous hWDR5 and H3K4me during ESC differentiation. mWdr5 KO ESCs were maintained in Dox (+) ESC media and Dox was removed upon ESC differentiation (day 0). At 12 h post differentiation, different doses of Dox were added to mWdr5 KO EBs. At embryoid body (EB) day 4 (EB4), EBs were collected and extracted histones were subjected to western blotting. Total H3 was used as loading control. […] Cell proliferation was determined at EB day 4 (FIG. 2C) and Rx-GFP positive retinal progenitor cells were scored by flow cytometry at day 5 (FIG. 2D). […] Cell proliferation was recorded at EB day 4 (FIG. 2E) and Rx-GFP positive retinal progenitor cells at EB day 5 were scored by flow cytometry (FIG. 2F). […] (FIG. 2H) Wdr5 regulates RPC differentiation in a time-dependent manner as determined by Rx/Rax mRNA RT-qPCR. […]

[2] = system: hWDR5Dox;mWdr5KO (mWdr5 KO) organoids; test: Cell proliferation of differentiating mWdr5 KO organoids in retinal culture conditions (EB day 4); details: Dox added at T0h, organoid day 4
Method: as §1

[3] = system: hWDR5Dox;mWdr5KO organoids; test: RT-qPCR of cardiomyocyte markers cTnT and aMHC after late (T48h) induction of hWDR5; details: Dox added at T48h
Method: FIGS. 4A-4K. Late induction of hWDR5 skews ESC differentiation from retinal neuroectoderm to cardiac mesoderm. (FIGS. 4A, 4B, 4C and 4D) RT-qPCR analysis of pluripotent marker (Oct4, FIG. 4A), neuroepithelial marker (N-Cadherin, FIG. 4B), retinal ectoderm marker (Rax/Rx, FIG. 4C) and cardiomyocyte mesoderm marker (cTnT, FIG. 4D) during time-course differentiation of WT, early induction (T12h), late induction (T36h or T48h) of exogenous hWDR5 in hWDR5^Dox;mWdr5^KO (i.e., mWdr5 KO) EBs. […] (FIG. 4H) Critical time points for exogenous hWDR5 linked to cardiomyocyte differentiation were determined by cTnT RT-qPCR. […] Induction of early mesoderm marker (T/Brachyury) and cTnT was determined by RT-qPCR.
Trizol reagent (ThermoFisher Scientific) and RNeasy mini kit (Qiagen) were utilized for RNA isolation from ESCs or EBs. […] Data were automatically analyzed using Bio-Rad CFX manager software using Δ/ΔCt method.
In various aspects of the disclosure, quantitative reverse transcription PCR (RT-qPCR) is used to analyze results obtained in the examples. […] Data is automatically analyzed using Bio-Rad CFX manager software using Δ/ΔCt method.
Third, immunohistochemistry (IHC) was used to assay for cardiomyocyte-specific proteins in T48h conditions. […] Neither cTnT nor Myh1e were detected in WT and T12h conditions. […]

## C[C@H]1c2cccc(O)c2C(=O)C2=C(O)[C@]3(O)C(=O)C(C(N)=O)=C(O)[C@@H](N(C)C)[C@@H]3[C@@H](O)[C@@H]21 [Dox, doxycycline]
[1]
  Dox dose at which proportion of Rx-GFP (+) RLCs reached a plateau: 500 ng/mL
  Dox dose at which proportion of Rx-GFP (+) RLCs was comparable to WT controls: 250 ng/mL
[2]
  Dox concentration at which rescue of the proliferation defect reached a plateau: 250 ng/mL
[3]
  Dox concentrations that induced cTnT and aMHC expression: up to 125 ng/ml
